Values of other authors as cited in patent US7645462B2, “Acupoint patch” (3T Herbtech, Inc., priority 2002, dated 2010).

How the values were obtained:
[1] = system: arteria femoralis blood circulation; settings: intravenous 50 mg/kg, sedated animals

Structure (SMILES)	arteria femoralis blood circulation [1]	external blood vessel resistance [1]	dilation of separated major arteries (separated major arteries)
COc1cc(/C=C/C(=O)O)ccc1O.[Na] [ferulic acid sodium]	increased	reduced	–
COc1cc(/C=C/C(=O)O)ccc1O [ferulic acid]	–	–	can dilate
